Article PMC8188729 (Nature, 2020)
Where “and” joins values, the source holds several entries; their conditions need not be identical. Equal entries are not always repeated. Where two headings read alike, the source gives them in different places.

Columns and labels:
[1] = Cytotoxicity assay; format: cell-based; details: human, quiescent PBMCs
[2] = Cytotoxicity assay; format: cell-based; details: human, MT-4 cells
[3] = system: HIV-2 isolates; assay: 7-day RT endpoint antiviral assay in human PBMCs, HIV-2 isolates; details: Human immunodeficiency virus 2, PBMC, read-out: mean EC50
[4] = system: single-cycle reporter HIV-1; assay: microbe, parasite or virus in culture; format: cell-based
[5] = system: clinical HIV-1 isolates; assay: 7-day RT endpoint antiviral assay in human PBMCs, clinical HIV-1 isolates; details: Human immunodeficiency virus 1, PBMC
[6] = system: primary human hepatocytes; assay: Metabolic stability of [3H]GS-6207 in primary human hepatocytes; format: in vitro ADME; details: [3H]GS-6207, primary human hepatocytes
[7] = Cytotoxicity assay; format: cell-based, human; details: human, stimulated PBMCs
[8] = system: Stimulated PBMCs; assay: Cytotoxicity assay; format: cell-based, human; details: PBMCs
[9] = system: HIV-1 CA mutants; format: cell-based; details: mutant/WT EC50 ratio
[10] = system: HIV-1 DNA; assay: Quantitation of HIV-1 DNA forms in infected MT-2 cells by PCR; details: GS-6207 at 1.25 nM
[11] = target: CA hexamer (Human immunodeficiency virus type 1 group M subtype B, UniProt P12493, A146C/E177C/M317A/W316A); assay: Surface plasmon resonance binding assay; design: species or system HIV-1
[12] = Study GS-US-200-4072: pharmacokinetics in participants living with HIV; format: in vivo, human; details: for CD9 / paEC95 (mean), fold EC95 coverage on day 9: PLWH; for concentration at 9 day: both, human, plasma, sc
[13] = target: Gag polyprotein (Human immunodeficiency virus type 1 group M subtype B, UniProt P12493); assay: biochemical; format: binding
[14] = Cytotoxicity assay; format: cell-based; details: human, primary CD4+ T-lymphocytes
[15] = system: HIV-1; format: in vivo; details: for Maximum HIV-1 RNA change through day 9: individual participants
[16] = target: HIV-1 PR (Human immunodeficiency virus type 1 group M subtype B, UniProt P04585); assay: HIV-1 PR cleavage activity in vitro; format: biochemical
[17] = format: in vivo, human; details: for AUCexp: healthy volunteers, mean (%CV); for time plasma concentrations exceeded paEC95: single SC, healthy participants
[18] = system: HIV-1BaL; assay: p24 endpoint antiviral assay in primary human CD4+ T-lymphocytes; format: cell-based; details: Human immunodeficiency virus 1, CD4+ T, read-out: mean EC50
[19] = Cytotoxicity assay; format: cell-based; details: human, Gal-HepG2 cells
[20] = Cytotoxicity assay; format: cell-based; details: human, Huh-7 cells
[21] = target: CA pentamer (Human immunodeficiency virus type 1 group M subtype B, UniProt P12493, A154C/M317A/N153C/W316A); assay: biochemical; format: binding
[22] = system: HIV-1 recombinant strains resistant to NRTIs, NNRTIs, INSTIs, PIs or MIs; format: cell-based
[23] = system: HIV-1IIIb; assay: In vitro two-drug combination study in HIV-1IIIB-infected MT-2 cells
[24] = system: HIV-1 CA protein; format: biochemical; details: 20 μM CA, 2 M NaCl
[25] = Cytotoxicity assay; format: cell-based; details: human, MRC-5 cells
[26] = target: CA monomer (Human immunodeficiency virus type 1 group M subtype B, UniProt P03348); assay: biochemical; format: binding
[27] = both, human, plasma, sc, 100 mg
[28] = both, human, plasma, sc, 300 mg
[29] = both, human, plasma, sc, 450 mg

CC(C)(C#Cc1ccc(-c2ccc(Cl)c3c(NS(C)(=O)=O)nn(CC(F)(F)F)c23)c([C@H](Cc2cc(F)cc(F)c2)NC(=O)Cn2nc(C(F)(F)F)c3c2C(F)(F)[C@@H]2C[C@H]32)n1)S(C)(=O)=O [GS-6207]
CC50 [1]: > 44400 nM
CC50 [2]: 24700 ± 18300 nM
EC50 [3]: 0.885 nM
EC50 ([4]; Human immunodeficiency virus 1): 0.025 nM
EC50 ([4]; Human immunodeficiency virus 1, HEK-293T): 0.439 nM
EC50 ([4]; Human immunodeficiency virus 1, MT2): 0.023 nM
EC50 ([5]; read-out: EC50 range): 0.02 to 0.16 nM
EC50 ([5]; read-out: mean EC50): 0.05 nM
hepatic extraction [6]: 0.8%
predicted rate of hepatic clearance [6]: 0.17 mL/min/kg
CC50 [7]: > 50000 nM
therapeutic index (CC50/EC50) [8]: > 1,000,000
Fold GS-6207 resistance ([9]; HIV-1 CA K70N): 24
Fold GS-6207 resistance ([9]; HIV-1 CA L56I): 239
Fold GS-6207 resistance ([9]; HIV-1 CA M66I): >3,226
Fold GS-6207 resistance ([9]; HIV-1 CA N74D): 22
Fold GS-6207 resistance ([9]; HIV-1 CA Q67H): 6
Fold GS-6207 resistance ([9]; HIV-1 CA WT): 1
HIV cDNA synthesis (late RT products) [10]: did not alter
formation of 2-LTR circles [10]: significantly reduced
formation of integrated proviruses [10]: significantly reduced
Kd [11]: 0.24 ± 0.09 nM
koff ([11]; CA hexamer): 1.4 ± 0.4 x 10^−5 s^−1
kon ([11]; CA hexamer): 6.5 ± 0.3 x 10^4 M^−1s^−1
CD9 / paEC95 (mean), fold EC95 coverage on day 9 ([12]; 20 mg SC): 0.67
CD9 / paEC95 (mean), fold EC95 coverage on day 9 ([12]; 50 mg SC): 1.14
CD9 / paEC95 (mean), fold EC95 coverage on day 9 ([12]; 150 mg SC): 3.33
CD9 / paEC95 (mean), fold EC95 coverage on day 9 ([12]; 450 mg SC): 9.87
concentration at 9 day ([12]; 20 mg): 2.58 ng/mL
concentration at 9 day ([12]; 50 mg): 4.4 ng/mL
concentration at 9 day ([12]; 150 mg): 12.9 ng/mL
concentration at 9 day ([12]; 450 mg): 38.2 ng/mL
Kd [13]: 1.1 nM
CC50 [14]: > 50000 nM
Maximum HIV-1 RNA change through day 9 ([15]; 20 mg): −0.83 log10 copies ml^−1 and −1.58 log10 copies ml^−1 and −1.74 log10 copies ml^−1 and −1.43 log10 copies ml^−1 and −1.33 log10 copies ml^−1 and −1.21 log10 copies ml^−1
Maximum HIV-1 RNA change through day 9 ([15]; 50 mg): −1.55 log10 copies ml^−1 and −1.61 log10 copies ml^−1 and −2.32 log10 copies ml^−1 and −1.16 log10 copies ml^−1 and −1.73 log10 copies ml^−1 and −2.39 log10 copies ml^−1
Maximum HIV-1 RNA change through day 9 ([15]; 150 mg): −2.06 log10 copies ml^−1 and −1.68 log10 copies ml^−1 and −1.86 log10 copies ml^−1 and −1.49 log10 copies ml^−1 and −1.87 log10 copies ml^−1 and −1.62 log10 copies ml^−1
Maximum HIV-1 RNA change through day 9 ([15]; 450 mg): −2.32 log10 copies ml^−1 and −2.86 log10 copies ml^−1 and −2.11 log10 copies ml^−1 and −1.83 log10 copies ml^−1 and −1.58 log10 copies ml^−1 and −2.52 log10 copies ml^−1
mean maximum reduction in plasma HIV-1 RNA through 9 days ([15]; single 20 mg SC): 1.35 log10
mean maximum reduction in plasma HIV-1 RNA through 9 days ([15]; single 50 mg SC): 1.79 log10
mean maximum reduction in plasma HIV-1 RNA through 9 days ([15]; single 150 mg SC): 1.76 log10
mean maximum reduction in plasma HIV-1 RNA through 9 days ([15]; single 450 mg SC): 2.20 log10 and 2.2 log10
IC50 [16]: > 50000 nM
AUCexp ([17]; 30 mg SC): 17.6 (69.4) %
AUCexp ([17]; 100 mg SC): 6.78 (65.0) %
AUCexp ([17]; 300 mg SC): 5.39 (126) %
AUCexp ([17]; 450 mg SC): 3.29 (69.9) %
AUC(0-inf) ([17]; both, human, plasma, sc, 30 mg): 8700 ng·h/mL
AUC(0-t) ([17]; both, human, plasma, sc, 30 mg): 5500 ng·h/mL
Cmax ([17]; both, human, plasma, sc, 30 mg): 3.2 ng/mL
half-life ([17]; both, human, plasma, sc, 30 mg): 37 days
AUC(0-inf) [17, 27]: 27300 ng·h/mL
AUC(0-t) [17, 27]: 23600 ng·h/mL
Cmax [17, 27]: 14.7 ng/mL
half-life [17, 27]: 31.9 days
AUC(0-inf) [17, 28]: 86100 ng·h/mL
AUC(0-t) [17, 28]: 73100 ng·h/mL
Cmax [17, 28]: 47.9 ng/mL
half-life [17, 28]: 45.4 days
AUC(0-inf) [17, 29]: 108000 ng·h/mL
AUC(0-t) [17, 29]: 97600 ng·h/mL
Cmax [17, 29]: 58.4 ng/mL
Tmax [17, 29]: 14 days
half-life [17, 29]: 39.7 days
time plasma concentrations exceeded paEC95 ([17]; doses ≥ 100 mg): ≥ 12 weeks
time plasma concentrations exceeded paEC95 ([17]; doses ≥ 300 mg): > 24 weeks
duration of sustained plasma exposure at antivirally active concentrations ([17]; single subcutaneous dose 450 mg): > 6 months
EC50 [18]: 0.032 nM
CC50 [19]: > 44400 nM
CC50 [20]: > 44400 nM
Kd [21]: 0.22 ± 0.16 nM
koff ([21]; CA pentamer): 2.7 ± 0.4 x 10^−5 s^−1
kon ([21]; CA pentamer): 2 ± 1 x 10^5 M^−1s^−1
Fold resistance ([22]; HIV-1 mutant 6TAMs (NRTI)): 0.2 ± 0.1 (3)
Fold resistance ([22]; HIV-1 mutant E92Q+N155H (INSTI)): 0.8 ± 0.4 (3)
Fold resistance ([22]; HIV-1 mutant E138K+Q148K (INSTI)): 0.6 ± 0.3 (3)
Fold resistance ([22]; HIV-1 mutant G48V+V82A+L90M (PI)): 0.5 ± 0.2 (3)
Fold resistance ([22]; HIV-1 mutant G48V+V82S (PI)): 0.4 ± 0.2 (3)
Fold resistance ([22]; HIV-1 mutant G140S+Q148R (INSTI)): 0.8 ± 0.3 (3)
Fold resistance ([22]; HIV-1 mutant I84V+L90M (PI)): 0.3 ± 0.1 (3)
Fold resistance ([22]; HIV-1 mutant K65R (NRTI)): 0.6 ± 0.2 (3)
Fold resistance ([22]; HIV-1 mutant K103N+Y181C (NNRTI)): 0.6 ± 0.2 (3)
Fold resistance ([22]; HIV-1 mutant L100I+K103N (NNRTI)): 0.5 ± 0.2 (3)
Fold resistance ([22]; HIV-1 mutant M46I+I50V (PI)): 0.7 ± 0.2 (3)
Fold resistance ([22]; HIV-1 mutant M184V (NRTI)): 0.3 ± 0.3 (3)
Fold resistance ([22]; HIV-1 mutant N155H+Q148R (INSTI)): 1.2 ± 0.7 (3)
Fold resistance ([22]; HIV-1 mutant V7A in SP1 (MI)): 0.8 ± 0.4 (8)
Fold resistance ([22]; HIV-1 mutant V230I in CA (MI)): 0.7 ± 0.2 (6)
Fold resistance ([22]; HIV-1 mutant Y188L (NNRTI)): 0.5 ± 0.1 (3)
Synergy volume [23]: 18 ± 8 μM^2.%
rate and extent of in vitro capsid assembly [24]: dose-dependent increase in the rate and extent of in vitro capsid assembly
CC50 [25]: > 44400 nM
Kd [26]: 2.5 nM
